Measured values as given in PubChem BioAssay (NCI).
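Protocol summary: plate cells (96-well), add compound at 5 concentrations, incubate 48 h, interpolate endpoints linearly. GI50 marks 50% less growth. TGI is the concentration that stops growth completely.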

Legend:
Test in all cases: DTP human tumour cell line panel, 48 h
A498 renal = system: A498 renal
HOP-62 NSCLC = system: HOP-62 NSCLC
HT29 colon = system: HT29 colon
M14 melanoma = system: M14 melanoma
SR leukemia = system: SR leukemia
SW-620 colon = system: SW-620 colon
U251 CNS = system: U251 CNS
UO-31 renal = system: UO-31 renal
BT-549 breast = system: BT-549 breast
MDA-MB-231 breast = system: MDA-MB-231 breast

Compound | TGI (A498 renal) | TGI (HOP-62 NSCLC) | TGI (HT29 colon) | TGI (M14 melanoma) | TGI (SR leukemia) | TGI (SW-620 colon) | TGI (U251 CNS) | TGI (UO-31 renal) | GI50 (A498 renal) | GI50 (BT-549 breast) | TGI (BT-549 breast) | GI50 (HOP-62 NSCLC) | GI50 (HT29 colon) | GI50 (M14 melanoma) | GI50 (MDA-MB-231 breast) | TGI (MDA-MB-231 breast) | GI50 (SW-620 colon) | GI50 (U251 CNS) | GI50 (UO-31 renal) | GI50 (SR leukemia)
N[C@H]1C2C3CC4C5CC(C42)C1(c1ccccc1)C53 (stereo partly specified) | > 100 µM | > 100 µM | > 100 µM | > 100 µM | > 100 µM | > 100 µM | > 100 µM | > 100 µM |  |  |  |  |  |  |  |  |  |  |  | 
N#Cc1ccccc1NC(=O)C(=O)C(C(=O)c1ccccc1-c1ccccc1)C1OC(=O)c2ccccc21 (stereo unspecified) | 45.2 µM | 25.1 µM | 97.3 µM | 30.6 µM |  | 75.5 µM | 25.6 µM |  |  |  |  |  |  |  |  |  |  |  |  | 
CCOC(=O)c1cccc(=O)c(C(=O)OCC)c1 | > 100 µM | > 100 µM | > 100 µM | > 100 µM |  | > 100 µM | > 100 µM | > 100 µM |  |  |  |  |  |  |  |  |  |  |  | 
CCOC(=O)c1cnc(SCc2ccc(Cl)c(Cl)c2)nc1N1CC1 | 14.4 µM | 13.6 µM | 12.2 µM | 11.7 µM |  | 13.8 µM | 18.2 µM | 7.63 µM | 2.82 µM | 2.88 µM | 13.6 µM | 2.95 µM | 2.7 µM | 2.89 µM | 6.12 µM | 27.2 µM | 1.74 µM | 3.71 µM | 1.87 µM | 
COc1ccc(/C(=C/c2cc(OC)c(OC)c(OC)c2)[N+](=O)[O-])cc1 | 3.63 µM | 5.93 µM | 8.98 µM | 3.72 µM |  | 3.91 µM | 3.05 µM | 2.62 µM | 1.76 µM | 1.7 µM | 3.2 µM | 2.64 µM | 3.68 µM | 1.79 µM | 1.47 µM | 3.28 µM | 1.71 µM | 1.58 µM | 1.3 µM | 
COc1cc2c3c(n(C)c(=O)c2cc1OC)-c1cc2c(cc1/C3=C\CCCCN)OCO2 | 22.6 µM |  | > 100 µM | 19.6 µM | > 100 µM | 24.8 µM | 21.6 µM | 13.5 µM | 9.53 µM |  |  |  | 7.45 µM | 5.55 µM | 2.94 µM | 11.4 µM | 6.36 µM | 6.04 µM | 3.28 µM | 3.58 µM
CC1=C(C(=O)Nc2ccc([N+](=O)[O-])cc2)C(c2ccco2)C(C(=O)Nc2ccc([N+](=O)[O-])cc2)=C(C)N1 | 82 µM | 71.1 µM | > 100 µM | > 100 µM |  | > 100 µM | > 100 µM | 60.1 µM |  |  |  |  |  |  |  |  |  |  |  | 
O=C(O)CN(c1ccc(Cl)cc1)S(=O)(=O)c1ccccc1 | > 100 µM |  | > 100 µM | > 100 µM |  | > 100 µM | > 100 µM | > 100 µM |  |  |  |  |  |  |  |  |  |  |  | 
CC12OC(C(=O)C13CC3)C1C(=O)c3ccccc3C(=O)C12 (stereo unspecified) |  | 80 µM | > 100 µM | > 100 µM |  |  |  | > 100 µM |  | 36.2 µM | 76.9 µM | 27.8 µM | 48.7 µM | 41 µM | 46.8 µM | > 100 µM |  |  | 32.8 µM | 
O=C1C2=C(c3ccccc31)C(c1ccc(Cl)cc1)N1C(=O)CCSC1=N2 (stereo unspecified) | > 100 µM | > 100 µM | > 100 µM | > 100 µM |  | > 100 µM | > 100 µM | > 100 µM |  |  |  |  |  |  |  |  |  |  |  | 
COC1C=C(Nc2cccc(Cl)c2)C(=O)C1 (stereo unspecified) | 32.2 µM | > 100 µM | > 100 µM | > 100 µM | > 100 µM | > 100 µM | > 100 µM | > 100 µM |  |  |  |  |  |  |  |  |  |  |  | 
COc1c(OC(C)=O)ccc(/C=C2\N=C(C)OC2=O)c1[N+](=O)[O-] | > 100 µM | > 100 µM | > 100 µM | > 100 µM | > 100 µM | > 100 µM | > 100 µM | > 100 µM |  |  |  |  |  |  |  |  |  |  |  | 
COC(=O)Nc1nc2ccc(C(=O)c3ccc[nH]3)cc2[nH]1 | > 100 µM | > 95.9 µM | > 100 µM | > 26.9 µM |  | > 100 µM | > 100 µM |  |  |  | > 100 µM |  |  |  |  | > 100 µM |  |  |  | 
C1=CN2C[n+]3cccc(OCc4ccccc4)c3N=C2C(OCc2ccccc2)=C1 | > 100 µM | > 100 µM | 47.1 µM | 56.4 µM |  | > 100 µM | > 100 µM | > 100 µM |  |  | 3.25 µM |  |  |  |  | 56.1 µM |  |  |  | 
O=C1C2=C(c3ccccc31)C(c1cccc(Cl)c1)NC(=S)N2 (stereo unspecified) | > 100 µM | > 100 µM | > 100 µM | > 100 µM |  | > 100 µM | > 100 µM | > 100 µM |  |  |  |  |  |  |  |  |  |  |  | 
O=[N+]([O-])c1ccc(N/N=C\c2cc(Cl)ccc2O)nc1 | > 100 µM | 11.9 µM | > 100 µM | 7.27 µM |  | > 100 µM | 12.1 µM | 5.45 µM | 17 µM | 3.23 µM | 14.9 µM | 1.96 µM | 4.9 µM | 1.19 µM | 3.88 µM | 33.1 µM | 0.873 µM | 0.51 µM | 0.3 µM | 
CC(C)=CC(=O)CC(=O)C(=O)Nc1ccc(C)c(C)c1 |  |  | > 100 µM | > 100 µM | > 100 µM | > 100 µM | > 100 µM | > 100 µM |  |  |  |  |  |  |  |  |  |  |  | 
NC(N)=NS(=O)(=O)c1ccc(NC(=O)c2cccc3c(Nc4ccc(S(=O)(=O)N=C(N)N)cc4)c4ccc(Cl)cc4nc23)cc1 | > 100 µM | > 100 µM | > 100 µM | > 100 µM |  | > 100 µM | > 100 µM | > 100 µM |  |  |  |  |  |  |  |  |  |  |  | 
COc1cc(C2C(Cl)C(=O)N2n2cnc3ccccc3c2=O)cc(OC)c1OC (stereo unspecified) |  | > 100 µM | > 100 µM | > 100 µM | > 100 µM | > 100 µM | > 100 µM | > 100 µM |  |  |  |  |  |  |  |  |  |  |  | 
CC1=C(C(=O)Nc2ccccc2)C(c2ccc3c(c2)OCO3)C(C(=O)Nc2ccccc2)=C(C)N1 | > 100 µM | > 100 µM | > 100 µM | > 100 µM |  | 12.3 µM |  | > 100 µM |  |  |  |  |  |  |  |  |  |  |  | 
O/N=C1/C(=C/c2ccc(F)cc2)CCCC1C(NO)c1ccc(F)cc1 (stereo unspecified) | > 100 µM | > 100 µM | 45.2 µM | > 100 µM |  | > 100 µM | > 100 µM | 72.5 µM |  |  |  |  |  |  |  |  |  |  |  | 
